This passage reports inhibition and IC50 results from patent US20240391948A1, “NOVEL COMPOUND THAT INHIBITS TNF-ALPHA GENERATION AND INFLAMMASOME ACTIVITY AND PREPARATION METHOD THEREFOR” (SHAPERON INC., priority 2021, published 2024).

Some results are limits rather than exact numbers.

What all share (assay type): cell-based
Assay [1] relates to J774A.1 (Mouse BALB/c monocyte macrophage cell line) cells. Description: LPS+ATP-induced IL-1β secretion inhibition in J774A.1 cells. The following applies: J774.A1, 1 μM compound, graded compared to taurodeoxycholic acid (positive control), read-out: IL-1β production inhibition grade. An outline of the steps:
(§1)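 Mouse J774A.1 macrophages treated with 1 μM compound; TNF-α secretion measured after LPS stimulation and IL-1β secretion after LPS+ATP stimulation. Suppression graded against taurodeoxycholic acid: A over 100%, B 50–100%, C 20–50%, D under 20%.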

For assay [2] the test system is unchanged. Description: LPS-induced TNF-α secretion inhibition in J774A.1 cells. As to conditions: J774.A1, 1 μM compound, graded compared to taurodeoxycholic acid (positive control), read-out: TNF-α production inhibition grade. An outline of the steps: as §1
Assay [3] has as its system U937 cells (human monocytic cell line). Description: BzATP-induced IL-1β secretion inhibition in PMA-differentiated U937 cells. The following applies: U-937, U937 cells differentiated with PMA, read-out: IL-1β production inhibition grade (IC50). An outline of the steps:
(§2)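 U937 cells were PMA-differentiated into macrophages and treated with compound before inflammatory stimulus. TNF-α secretion was induced with Pam2CSK4 and IL-1β secretion with BzATP. IC50 (μM) values are graded A-D, with separate cut-offs per cytokine.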

Assay [4] shares this test system. Description: Pam2CSK4-induced TNF-α secretion inhibition in PMA-differentiated U937 cells. As to conditions: U-937, U937 cells differentiated with PMA, read-out: TNF-α production inhibition grade (IC50). An outline of the steps:
as §2

Turning to `C[C@H](CCC(=O)N(CCS(=O)(=O)O)Cc1ccccc1)[C@H]1CC[C@H]2[C@@H]3CC[C@@H]4C[C@H](O)CC[C@]4(C)[C@H]3CC[C@]12C` [NC10056], the inhibition at 1 µM in assay [1] fell in the range of 50 to 100%; in assay [2], 20 to 50%. Also, the results for the IC50 in assay [3] and in assay [4] were 50 to 100 nM and at least 2000 nM, respectively.

As to `CC(C)N(CCS(=O)(=O)O)C(=O)CC[C@@H](C)[C@H]1CC[C@H]2[C@@H]3CC[C@@H]4C[C@H](O)CC[C@]4(C)[C@H]3CC[C@]12C` [NC10058], the inhibition at 1 µM was over 100% in assay [1] and under 20% in assay [2]. Further, the IC50 in assay [3] is under 50 nM; in assay [4], at least 2000 nM.

Consider `C[C@H](CCC(=O)N(CCS(=O)(=O)O)C1CCOCC1)[C@H]1CC[C@H]2[C@@H]3CC[C@@H]4C[C@H](O)CC[C@]4(C)[C@H]3CC[C@]12C` [NC10059], for which the inhibition at 1 µM in assay [1] was over 100%; in assay [2] it was under 20%. For the same compound, the IC50 in assay [3] is under 50 nM; in assay [4], 1000 to 2000 nM.

For the compound `C[C@H](CCC(=O)N1CCC[C@H](S(=O)(=O)O)C1)[C@H]1CC[C@H]2[C@@H]3CC[C@@H]4C[C@H](O)CC[C@]4(C)[C@H]3CC[C@]12C` [NC10060], the figures for the inhibition at 1 µM in assay [1] and in assay [2] were 50 to 100% and under 20%, respectively. Besides, the results for the IC50 in assay [3] and in assay [4] were at least 200 nM and at least 2000 nM, respectively.

`C[C@H](CCC(=O)N1CCC[C@@H](S(=O)(=O)O)C1)[C@H]1CC[C@H]2[C@@H]3CC[C@@H]4C[C@H](O)CC[C@]4(C)[C@H]3CC[C@]12C` [NC10061]: the inhibition at 1 µM in assay [1] was over 100%; in assay [2], under 20%. Moreover, the values for the IC50 in assay [3] and in assay [4] were 100 to 200 nM and 500 to 1000 nM, respectively.

Take `C[C@H](CCC(=O)N1CCC(S(=O)(=O)O)CC1)[C@H]1CC[C@H]2[C@@H]3CC[C@@H]4C[C@H](O)CC[C@]4(C)[C@H]3CC[C@]12C` [NC10062]: the inhibition at 1 µM was over 100% in assay [1] and under 20% in assay [2]. Also, the values for the IC50 in assay [3] and in assay [4] were under 50 nM and 500 to 1000 nM, respectively.

For the compound `C[C@H](CCC(=O)N1CC(S(=O)(=O)O)C1)[C@H]1CC[C@H]2[C@@H]3CC[C@@H]4C[C@H](O)CC[C@]4(C)[C@H]3CC[C@]12C` [NC10063], the values for the inhibition at 1 µM in assay [1] and in assay [2] were over 100% and under 20%, respectively. Also, the IC50 in assay [3] is under 50 nM; in assay [4], 500 to 1000 nM.

On to `C[C@H](CCC(=O)NC(C)(C)CS(=O)(=O)O)[C@H]1CC[C@H]2[C@@H]3CC[C@@H]4C[C@H](O)CC[C@]4(C)[C@H]3CC[C@]12C` [NC10064], for which the inhibition at 1 µM in assay [1] and in assay [2] was under 20% each time. Further, the IC50 in assay [3] is under 50 nM; in assay [4], under 500 nM.

On to `C[C@H](CCC(=O)N[C@@H](Cc1ccccc1)CS(=O)(=O)O)[C@H]1CC[C@H]2[C@@H]3CC[C@@H]4C[C@H](O)CC[C@]4(C)[C@H]3CC[C@]12C` [NC10065], for which the figures for the inhibition at 1 µM in assay [1] and in assay [2] were over 100% and under 20%, respectively. The IC50 in assay [3] is 100 to 200 nM; in assay [4] it was 1000 to 2000 nM.

For `C[C@H](CCC(=O)N[C@H](Cc1ccccc1)CS(=O)(=O)O)[C@H]1CC[C@H]2[C@@H]3CC[C@@H]4C[C@H](O)CC[C@]4(C)[C@H]3CC[C@]12C` [NC10066], the values for the inhibition at 1 µM in assay [1] and in assay [2] were over 100% and under 20%, respectively. In addition, the figures for the IC50 in assay [3] and in assay [4] were under 50 nM and 1000 to 2000 nM, respectively.

Regarding `CC(C)[C@@H](CS(=O)(=O)O)NC(=O)CC[C@@H](C)[C@H]1CC[C@H]2[C@@H]3CC[C@@H]4C[C@H](O)CC[C@]4(C)[C@H]3CC[C@]12C` [NC10067], the inhibition at 1 µM in assay [1] and in assay [2] was under 20% throughout. Also, the IC50 in assay [3] was at least 200 nM; in assay [4] it was 1000 to 2000 nM.

`CC(C)[C@H](CS(=O)(=O)O)NC(=O)CC[C@@H](C)[C@H]1CC[C@H]2[C@@H]3CC[C@@H]4C[C@H](O)CC[C@]4(C)[C@H]3CC[C@]12C` [NC10068]: the inhibition at 1 µM in assay [1] was over 100%; in assay [2], under 20%. For the same compound, the IC50 was under 50 nM in assay [3] and under 500 nM in assay [4].

With `C[C@H](CCC(=O)N[C@H](CS(=O)(=O)O)c1ccccc1)[C@H]1CC[C@H]2[C@@H]3CC[C@@H]4C[C@H](O)CC[C@]4(C)[C@H]3CC[C@]12C` [NC10069], the results for the inhibition at 1 µM in assay [1] and in assay [2] were over 100% and under 20%, respectively. Moreover, the IC50 is under 50 nM in assay [3] and under 500 nM in assay [4].

Consider `C[C@H](CCC(=O)N[C@H](c1ccccc1)[C@H](C)S(=O)(=O)O)[C@H]1CC[C@H]2[C@@H]3CC[C@@H]4C[C@H](O)CC[C@]4(C)[C@H]3CC[C@]12C` [NC10070], for which the inhibition at 1 µM in assay [1] was over 100%; in assay [2], 50 to 100%. Further, the IC50 was under 50 nM in assay [3] and under 500 nM in assay [4].

Take `C[C@H](CCC(=O)N[C@H](Cc1ccccc1)CS(=O)(=O)O)[C@H]1CC[C@H]2[C@@H]3CC[C@@H]4C[C@H](O)CC[C@]4(C)[C@H]3CC[C@]12C` [NC10071]: the inhibition at 1 µM in assay [1] is over 100%; in assay [2] it was under 20%. Moreover, the IC50 in assay [3] is under 50 nM; in assay [4], under 500 nM.

Take `CC(C)[C@@H](CS(=O)(=O)O)NC(=O)CC[C@@H](C)[C@H]1CC[C@H]2[C@@H]3CC[C@@H]4C[C@H](O)CC[C@]4(C)[C@H]3CC[C@]12C` [NC10072]: the inhibition at 1 µM in assay [1] was 20 to 50%; in assay [2] it was under 20%. Further, the 50% inhibitory concentration (IC50) in assay [3] was under 50 nM; in assay [4], under 500 nM.

For the compound `CC(C)[C@H](CS(=O)(=O)O)NC(=O)CC[C@@H](C)[C@H]1CC[C@H]2[C@@H]3CC[C@@H]4C[C@H](O)CC[C@]4(C)[C@H]3CC[C@]12C` [NC10073], the values for the inhibition at 1 µM in assay [1] and in assay [2] were 50 to 100% and under 20%, respectively. Also, the IC50 was 50 to 100 nM in assay [3] and under 500 nM in assay [4].

In the case of `C[C@H](CCC(=O)N[C@H](CS(=O)(=O)O)c1ccccc1)[C@H]1CC[C@H]2[C@@H]3CC[C@@H]4C[C@H](O)CC[C@]4(C)[C@H]3CC[C@]12C` [NC10074], the results for the inhibition at 1 µM in assay [1] and in assay [2] were over 100% and under 20%, respectively. Besides, the values for the IC50 in assay [3] and in assay [4] were 50 to 100 nM and under 500 nM, respectively.

For `C[C@H](CCC(=O)N1CCC[C@@H]1CS(=O)(=O)O)[C@H]1CC[C@H]2[C@@H]3CC[C@@H]4C[C@H](O)CC[C@]4(C)[C@H]3CC[C@]12C` [NC10076], the inhibition at 1 µM in assay [1] was over 100%; in assay [2], under 20%. Besides, the IC50 in assay [3] was 50 to 100 nM; in assay [4] it was at least 2000 nM.

For the compound `C[C@H](CCC(=O)N1CCC[C@H]1CS(=O)(=O)O)[C@H]1CC[C@H]2[C@@H]3CC[C@@H]4C[C@H](O)CC[C@]4(C)[C@H]3CC[C@]12C` [NC10077], the inhibition at 1 µM is over 100% in assay [1] and under 20% in assay [2]. For the same compound, the IC50 in assay [3] is under 50 nM; in assay [4], under 500 nM.

`C[C@H](CCC(=O)NC[C@H](C)S(=O)(=O)O)[C@H]1CC[C@H]2[C@@H]3CC[C@@H]4C[C@H](O)CC[C@]4(C)[C@H]3CC[C@]12C` [NC10078]: the values for the inhibition at 1 µM in assay [1] and in assay [2] were over 100% and under 20%, respectively. In addition, the concentration for half-maximal inhibition (IC50) in assay [3] was under 50 nM; in assay [4] it was under 500 nM.

On to `C[C@H](CCC(=O)NC[C@@H](C)S(=O)(=O)O)[C@H]1CC[C@H]2[C@@H]3CC[C@@H]4C[C@H](O)CC[C@]4(C)[C@H]3CC[C@]12C` [NC10079], for which the inhibition at 1 µM in assay [1] was over 100%; in assay [2], 20 to 50%. Besides, the IC50 in assay [3] is under 50 nM; in assay [4] it was 500 to 1000 nM.

In the case of `C[C@H](CCC(=O)N[C@@H](CO)CS(=O)(=O)O)[C@H]1CC[C@H]2[C@@H]3CC[C@@H]4C[C@H](O)CC[C@]4(C)[C@H]3CC[C@]12C` [NC10080], the inhibition at 1 µM in assay [1] was over 100%; in assay [2], under 20%. For the same compound, the IC50 lay within 100 to 200 nM in assay [3] and 500 to 1000 nM in assay [4].

With `C[C@H](CCC(=O)N[C@H](CO)CS(=O)(=O)O)[C@H]1CC[C@H]2[C@@H]3CC[C@@H]4C[C@H](O)CC[C@]4(C)[C@H]3CC[C@]12C` [NC10081], the inhibition at 1 µM in assay [1] and in assay [2] was over 100% throughout. Also, the IC50 in assay [3] was under 50 nM; in assay [4], 500 to 1000 nM.

Take `C[C@H](CCC(=O)N[C@@H]1CCCC[C@@H]1S(=O)(=O)O)[C@H]1CC[C@H]2[C@@H]3CC[C@@H]4C[C@H](O)CC[C@]4(C)[C@H]3CC[C@]12C` [NC10082]: the inhibition at 1 µM in assay [1] and in assay [2] was over 100% throughout. The IC50 was under 50 nM in assay [3] and under 500 nM in assay [4].

Regarding `C[C@H](CCC(=O)N[C@H]1CCCC[C@H]1S(=O)(=O)O)[C@H]1CC[C@H]2[C@@H]3CC[C@@H]4C[C@H](O)CC[C@]4(C)[C@H]3CC[C@]12C` [NC10083], the inhibition at 1 µM in assay [1] and in assay [2] was over 100% each time. The IC50 in assay [3] was under 50 nM; in assay [4], 500 to 1000 nM.

In general, inhibition refers to the relative decrease from the control value, in per cent. One may read the IC50 as the concentration needed to halve the response being measured.
